Values quoted from earlier work as cited in patent publication US8257686B2, “Compositions and methods relating to prevention of chemotherapy-induced alopecia” (HSF Pharmaceuticals S.A., priority 2000, dated 2012).

Test system: chemotherapy-induced hair loss
Conditions: review Dorr 1998; Sredni et al. 1996

Compound | prevention of chemotherapy-induced hair loss
C=C1/C(=C\C=C2/CCC[C@]3(C)[C@@H]([C@H](C)CCCC(C)(C)O)CC[C@@H]23)C[C@@H](O)C[C@@H]1O [1,25-dihydroxyvitamin D3] | showed a marked sex preference
Cl[TeH]1(Cl)(Cl)OCCO1 [AS101, ammonium trichloro (dioxy-ethylene-0,0′) tellurate] | More promising results
Cc1c(C)c2c(c(C)c1O)CC[C@@](C)(CCC[C@H](C)CCC[C@H](C)CCCC(C)C)O2 [alpha-tocopherol] | failed
C=C1/C(=C\C=C2/CCC[C@]3(C)[C@@H]([C@H](C)CCCC(C)(C)O)CC[C@@H]23)C[C@@H](O)C[C@@H]1O [calcitriol] | failed
